In the supplement of paper PMC5770543:
± gives the standard deviation.

Legend:
[1] = target: Toxoplasma gondii RH tachyzoites; experiment: EC50 growth inhibition (48 h luciferase)
[2] = tested on: Plasmodium falciparum 3D7; experiment: EC50 growth inhibition (60 h, SYBR Green); details: stage: ring-stage start
[3] = tested on: Toxoplasma gondii RH tachyzoites; experiment: % growth inhibition vs DMSO (48 h luciferase); higher = more inhibition; details: 10 µM
[4] = tested on: Plasmodium falciparum 3D7; experiment: % inhibition of schizont-to-ring transition vs DMSO; higher = more inhibition
In short: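 Tightly synchronised P. falciparum schizonts (about 40–42 hours post-invasion, 1% parasitemia, 2.5% hematocrit, AlbuMAX-supplemented RPMI) were exposed to compound at 1, 3 or 10 µM, with vehicle and positive controls. Cells were glutaraldehyde-fixed, Triton-permeabilised, stained with Hoechst 33342 and counted by flow cytometry (at least 100,000 events). Schizont-to-ring transition inhibition is new ring formation relative to vehicle controls, averaged over three experiments.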

[5] = tested on: Toxoplasma gondii RH tachyzoites; experiment: plaque count per well; higher = less inhibition; extreme values may be limits of the assay; details: 10 µM; 8-10 days
In short: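 Confluent HFF monolayers in six-well plates were preseeded with compound at 10 µM, and fifty T. gondii RH tachyzoites were added to each well. After 8 to 10 days without disturbance, the plates were methanol-fixed, stained with crystal violet, imaged, and plaques per well were counted in ImageJ. The plaque count per well is taken as a measure of delayed-death inhibition of parasite growth.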
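For % growth inhibition vs DMSO (48 h luciferase) in this document: tested in triplicate wells of 96-well plates on confluent HFF monolayers, with 1% DMSO wells as negative control in four replicates.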

SMILES | EC50 growth inhibition [1] | EC50 growth inhibition [2] | % growth inhibition [3] | % inhibition of schizont-to-ring transition ([4]; 1 µM) | % inhibition of schizont-to-ring transition ([4]; 3 µM) | % inhibition of schizont-to-ring transition ([4]; 10 µM) | plaque count per well [5]
COc1ccc(C(=O)C(CCC(CNC(C)(C)C)C(=O)c2ccc(OC)cc2)CNC(C)(C)C)cc1 (stereo not drawn) | 1510 nM | 1450 nM | 89.2 ± 2.7% | < 0% | 16.3% | 66.1% | 0
CSc1ccccc1C(=O)Nc1nc(-c2ccccn2)cs1 | 849 nM | 1710 nM | 99.44 ± 0.19% | 23% | 26.9% | 40.1% | –
OC(CNCC1CCCO1)Cn1c2ccc(Cl)cc2c2cc(Cl)ccc21 (stereo not drawn) | 4460 nM | 394 nM | 99.23 ± 0.57% | 5.57% | 44.1% | 65.7% | –
O=C(Nc1ccc(Cl)cc1C(=O)Nc1ccncc1)c1ccc(Cl)cc1Cl | 3950 nM | 1280 nM | 80.8 ± 4.7% | 3.75% | 32.4% | 62.5% | –
FC(F)(F)c1ccc(Nc2nnnc3ccccc23)cc1 | 681 nM | 1020 nM | 83.5 ± 1.2% | < 0% | 4.32% | 52.7% | –
CCOC(=O)c1c(C)n(-c2ccccc2)c2ccc(OC(=O)c3cc(OC)c(OC)c(OC)c3)cc12 | 6360 nM | 1600 nM | 96.58 ± 0.65% | 11.1% | 16.1% | 27.7% | –
Cc1ccc(Nc2nc(N)c3ccccc3n2)cc1Cl | 1980 nM | 427 nM | 98.03 ± 0.51% | 23.3% | 60.8% | 67.5% | –
CC(C)(C)C(=O)Nc1ccc(C(=O)Nc2cccc(-c3nc4ccccc4[nH]3)c2)cc1 | 2080 nM | 1820 nM | 88.4 ± 1.2% | 22.8% | 32.4% | 56.2% | –
COc1ccc(-c2nc3cc(Cc4ccc5[nH]c(-c6ccc(OC)cc6)nc5c4)ccc3[nH]2)cc1 | 1470 nM | 185 nM | 100 ± 0.58% | 50.4% | 65.3% | 68.3% | –
Oc1ccc(Br)cc1CN1CCN(Cc2ccc(Cl)cc2)CC1 | 6610 nM | 1090 nM | 91.5 ± 3.5% | 16.2% | 45.5% | 68.8% | –
COc1ccc(Nc2nc(NCc3ccccc3)c3ccccc3n2)cc1 | 763 nM | 104 nM | 100.5 ± 0.45% | 26.4% | 34.8% | 48% | –
CCN(CC)c1cc(C)c2cc(NC(=O)c3cccc(OC)c3)ccc2n1 | 1810 nM | 1300 nM | 98.73 ± 0.42% | 25.4% | 31.7% | 56.8% | –
CCCOCc1cc(CN2CCN(c3cccc(Cl)c3)CC2)c(O)c2ncccc12 | 1500 nM | 3790 nM | 99.61 ± 0.24% | 6.74% | 41.8% | 52.5% | –
Cc1sc(NC(=O)c2ccccc2)c(C(c2cccs2)N2CCN(c3ccccc3)CC2)c1C (stereo not drawn) | 550 nM | 1930 nM | 88.7 ± 5.2% | 5.65% | 10.7% | 36.5% | –
OC(CNCc1ccccc1)Cn1c2ccccc2c2ccccc21 (stereo not drawn) | 286 nM | 2200 nM | 48.3 ± 2% | 37.8% | 43% | 65.5% | –
O=C(Nc1ccc(Cl)c(Cl)c1)Nc1ccc(Cl)c(Cl)c1 | 196 nM | 7140 nM | 100.5 ± 0.22% | 15.3% | 29.9% | 72.5% | –

SMILES | EC50 growth inhibition [1] | EC50 growth inhibition [2] | % growth inhibition [3] | % inhibition of schizont-to-ring transition ([4]; 1 µM) | % inhibition of schizont-to-ring transition ([4]; 3 µM) | % inhibition of schizont-to-ring transition ([4]; 10 µM) | plaque count per well [5]
Cc1ccc2nc(C)cc(Nc3cccc(C(F)(F)F)c3)c2c1 | 465 nM | 894 nM | 99.29 ± 0.18% | 2.29% | 31.8% | 62.9% | –
COCCN(C(=O)Cc1cccs1)C(C(=O)NCc1ccc(OC)cc1)c1ccc(C(C)C)cc1 (stereo not drawn) | 2420 nM | 935 nM | 91.5 ± 3.5% | 10.9% | 13.7% | 21.6% | –
CCCCCCn1c(=N)n(CC(O)COc2cccc(C)c2)c2ccccc21 (stereo not drawn) | 2090 nM | 1130 nM | 99.65 ± 0.38% | 7.26% | 18.9% | 72.6% | –
COc1cc(-c2nc(-c3ccc(Sc4ccccc4)cc3)c(-c3ccccc3)[nH]2)cc(OC)c1O | 1320 nM | 449 nM | 98.59 ± 0.34% | < 0% | < 0% | 45.4% | –
CCCCCCC(O)(c1ccc(F)cc1)C(CN1CCOCC1)c1ccccc1 (stereo not drawn) | 3570 nM | 2160 nM | 100.1 ± 0.26% | 37.5% | 40.1% | 40.3% | –
CN(C)CCCNCc1ccc(-c2ccc(F)c(Cl)c2)o1 | 1660 nM | 601 nM | 92.8 ± 3.3% | 12.5% | 38.8% | 63.5% | –
COc1ccc(C2Sc3ccccc3N=C3C2=C(O)c2ccccc23)cc1 (stereo not drawn) | 963 nM | 1180 nM | 98.68 ± 0.16% | < 0% | 1.15% | 31.1% | –
COc1ccc(C2c3ccc4ccccc4c3Oc3ncn(CCCN(C)C)c(=N)c32)cc1 (stereo not drawn) | 2650 nM | 319 nM | 100.2 ± 0.12% | 22.6% | 63.4% | 77.4% | –
CCN(CC)CCCNc1nc(-c2ccc(Cl)cc2)nc2ccccc12 | 122 nM | 3520 nM | 80.8 ± 4.8% | 44.9% | 45.1% | 58.3% | –
COc1ccccc1NC1=C(N2CCCCC2)C(=O)c2ccccc2C1=O | 4950 nM | 35.9 nM | 90.3 ± 3.8% | 38.5% | 61.8% | 64.7% | –
CCOc1ccc2nc(C)cc(Nc3ccc(Br)cc3)c2c1 | 4410 nM | 180 nM | 99.53 ± 0.2% | 28% | 45.8% | 44.9% | –
CSC1=NC(=Nc2c(C)cccc2C)C2(CCC(C(C)(C)C)CC2)N1c1ccc(Cl)cc1 (stereo not drawn) | 775 nM | 869 nM | 99.94 ± 0.22% | 12.4% | 26.3% | 49.9% | –
O=C(Nc1cccc(C(F)(F)F)c1)c1cc(Cl)ccc1O | 9.2 nM | 3770 nM | 99.77 ± 0.14% | < 0% | 20.2% | 51.6% | –
c1ccc(CNc2nc(Nc3ccccc3)nc3ccccc23)cc1 | 708 nM | 181 nM | 99.917 ± 0.022% | 44.8% | 51.2% | 66.8% | –
Cc1ccccc1OCCSc1nc2ccc(NC(=O)c3cccs3)cc2s1 | 1160 nM | 3730 nM | 99.844 ± 0.082% | 10.7% | 28.6% | 55.5% | –
COCCNC(=O)c1ccc(OC2CCN(Cc3ccc(F)c(F)c3)CC2)c(Cl)c1 | 270 nM | 1250 nM | 97.36 ± 0.96% | 10.5% | 23.7% | 52.4% | –
